From PubChem BioAssay (NCI)
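Assay format: 96-well plates, 48-hour exposure. At the TGI there is no net growth.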

Tests used:
Test in all cases: NCI anticancer screen, dose series, 48 h
XF 498 CNS = tested on: XF 498 CNS
HOP-92 NSCLC = tested on: HOP-92 NSCLC
OVCAR-3 ovarian = tested on: OVCAR-3 ovarian
HCC-2998 colon = tested on: HCC-2998 colon
LOX IMVI melanoma = tested on: LOX IMVI melanoma
SK-OV-3 ovarian = tested on: SK-OV-3 ovarian
NCI-H23 lung = tested on: NCI-H23 lung
HL-60(TB) leukemia = tested on: HL-60(TB) leukemia
NCI-H522 lung = tested on: NCI-H522 lung
DLD-1 colon = tested on: DLD-1 colon
SW-620 colon = tested on: SW-620 colon
A498 renal = tested on: A498 renal
DMS 114 small cell lung = tested on: DMS 114 small cell lung
UO-31 renal = tested on: UO-31 renal
TK-10 renal = tested on: TK-10 renal
SK-MEL-28 melanoma = tested on: SK-MEL-28 melanoma
UACC-62 melanoma = tested on: UACC-62 melanoma
SF-539 CNS = tested on: SF-539 CNS
M19-MEL melanoma = tested on: M19-MEL melanoma
HOP-62 NSCLC = tested on: HOP-62 NSCLC
RPMI-8226 leukemia = tested on: RPMI-8226 leukemia
MALME-3M melanoma = tested on: MALME-3M melanoma
CCRF-CEM leukemia = tested on: CCRF-CEM leukemia
UACC-257 melanoma = tested on: UACC-257 melanoma
OVCAR-5 ovarian = tested on: OVCAR-5 ovarian
HT29 colon = tested on: HT29 colon
K-562 leukemia = tested on: K-562 leukemia
KM20L2 colon = tested on: KM20L2 colon
HOP-18 NSCLC = tested on: HOP-18 NSCLC
MOLT-4 leukemia = tested on: MOLT-4 leukemia
OVCAR-4 ovarian = tested on: OVCAR-4 ovarian
OVCAR-8 ovarian = tested on: OVCAR-8 ovarian
COLO 205 colon = tested on: COLO 205 colon
HCT-116 colon = tested on: HCT-116 colon
SK-MEL-2 melanoma = tested on: SK-MEL-2 melanoma
EKVX NSCLC = tested on: EKVX NSCLC
IGROV1 ovarian = tested on: IGROV1 ovarian
HCT-15 colon = tested on: HCT-15 colon
SF-268 CNS = tested on: SF-268 CNS
SNB-19 CNS = tested on: SNB-19 CNS
A549 NSCLC = tested on: A549 NSCLC
RXF 393 renal = tested on: RXF 393 renal
NCI-H226 lung = tested on: NCI-H226 lung
LXFL 529 NSCLC = tested on: LXFL 529 NSCLC
DMS 273 small cell lung = tested on: DMS 273 small cell lung
KM12 colon = tested on: KM12 colon
786-0 renal = tested on: 786-0 renal
SF-295 CNS = tested on: SF-295 CNS
U251 CNS = tested on: U251 CNS
M14 melanoma = tested on: M14 melanoma
ACHN renal = tested on: ACHN renal
CAKI-1 renal = tested on: CAKI-1 renal
SK-MEL-5 melanoma = tested on: SK-MEL-5 melanoma
NCI-H460 lung = tested on: NCI-H460 lung
MDA-MB-231 breast = tested on: MDA-MB-231 breast
MCF7 breast = tested on: MCF7 breast
PC-3 prostate = tested on: PC-3 prostate
BT-549 breast = tested on: BT-549 breast
SN12C renal = tested on: SN12C renal
NCI/ADR-RES ovarian = tested on: NCI/ADR-RES ovarian
MDA-N = tested on: MDA-N
MDA-MB-435 = tested on: MDA-MB-435
SNB-75 CNS = tested on: SNB-75 CNS
T-47D breast = tested on: T-47D breast
SR leukemia = tested on: SR leukemia
HS 578T breast = tested on: HS 578T breast
DU-145 prostate = tested on: DU-145 prostate

CC(=O)OC(C[C@H](C)[C@@H]1CC[C@]2(C)C3=CCC4C(C)(C)C(=O)CC[C@]4(C)C3CCC12C)C1OC1(C)C (stereo partly drawn) showed a TGI (XF 498 CNS) of 43.8 µM, a TGI (HOP-92 NSCLC) of 24.3 µM and a TGI (OVCAR-3 ovarian) of over 100 µM. The TGI (HCC-2998 colon) was 30.7 µM, the TGI (LOX IMVI melanoma) was over 100 µM and the TGI (SK-OV-3 ovarian) was 25.7 µM. It also gave a TGI (NCI-H23 lung) of 86.4 µM, a TGI (HL-60(TB) leukemia) of 29.5 µM and a TGI (NCI-H522 lung) of 36.5 µM. The TGI (DLD-1 colon) was over 100 µM, the TGI (SW-620 colon) was over 100 µM and the TGI (A498 renal) was 31.7 µM. It also gave a TGI (DMS 114 small cell lung) of over 100 µM, a TGI (UO-31 renal) of 25.8 µM and a TGI (TK-10 renal) of 35.4 µM. It also gave a TGI (SK-MEL-28 melanoma) of 88.2 µM, a TGI (UACC-62 melanoma) of over 100 µM and a TGI (SF-539 CNS) of over 100 µM. For the same compound, the TGI (M19-MEL melanoma) was over 100 µM, the TGI (HOP-62 NSCLC) was 42.7 µM and the TGI (RPMI-8226 leukemia) was over 100 µM. For the same compound, the TGI (MALME-3M melanoma) was 89.2 µM, the TGI (CCRF-CEM leukemia) was over 100 µM and the TGI (UACC-257 melanoma) was 75.1 µM. The TGI (OVCAR-5 ovarian) was 31.8 µM, the TGI (HT29 colon) was 42.7 µM and the TGI (K-562 leukemia) was over 100 µM. It also gave a TGI (KM20L2 colon) of over 100 µM, a TGI (HOP-18 NSCLC) of over 100 µM and a TGI (MOLT-4 leukemia) of over 100 µM. For the same compound, the TGI (OVCAR-4 ovarian) was over 100 µM, the TGI (OVCAR-8 ovarian) was over 100 µM and the TGI (COLO 205 colon) was 48.3 µM. For the same compound, the TGI (HCT-116 colon) was 94.1 µM, the TGI (SK-MEL-2 melanoma) was over 100 µM and the TGI (EKVX NSCLC) was over 100 µM. It also gave a TGI (IGROV1 ovarian) of over 100 µM, a TGI (HCT-15 colon) of over 100 µM and a TGI (SF-268 CNS) of 83.2 µM. For the same compound, the TGI (SNB-19 CNS) was over 100 µM, the TGI (A549 NSCLC) was over 100 µM and the TGI (RXF 393 renal) was 28.6 µM. For the same compound, the TGI (NCI-H226 lung) was 29 µM, the TGI (LXFL 529 NSCLC) was over 100 µM and the TGI (DMS 273 small cell lung) was 77.6 µM. The TGI (KM12 colon) was 47.4 µM, the TGI (786-0 renal) was 43.2 µM and the TGI (SF-295 CNS) was over 100 µM. For the same compound, the TGI (U251 CNS) was 66.8 µM, the TGI (M14 melanoma) was 55.4 µM and the TGI (ACHN renal) was 31.9 µM.
For COc1ccc(/C=c2/s/c(=C(\C#N)c3nc4ccccc4[nH]3)n(-c3ccccc3)c2=O)cc1, the TGI (XF 498 CNS) was 88.6 µM, the TGI (CAKI-1 renal) was over 100 µM and the TGI (SK-MEL-5 melanoma) was over 100 µM. It also gave a TGI (NCI-H460 lung) of over 74.9 µM, a TGI (HOP-92 NSCLC) of 37.7 µM and a TGI (MDA-MB-231 breast) of 49.5 µM. It also gave a TGI (OVCAR-3 ovarian) of over 75.3 µM, a TGI (HCC-2998 colon) of over 100 µM and a TGI (LOX IMVI melanoma) of over 100 µM. For the same compound, the TGI (SK-OV-3 ovarian) was 71.6 µM, the TGI (NCI-H23 lung) was over 63.5 µM and the TGI (HL-60(TB) leukemia) was over 100 µM. For the same compound, the TGI (MCF7 breast) was over 100 µM, the TGI (NCI-H522 lung) was over 100 µM and the TGI (DLD-1 colon) was over 100 µM. For the same compound, the TGI (SW-620 colon) was over 58.9 µM, the TGI (A498 renal) was over 76.5 µM and the TGI (DMS 114 small cell lung) was over 100 µM. For the same compound, the TGI (UO-31 renal) was over 100 µM, the TGI (TK-10 renal) was over 100 µM and the TGI (SK-MEL-28 melanoma) was over 100 µM. It also gave a TGI (UACC-62 melanoma) of over 47.5 µM, a TGI (SF-539 CNS) of over 61.5 µM and a TGI (PC-3 prostate) of 67.3 µM. For the same compound, the TGI (M19-MEL melanoma) was over 100 µM, the TGI (HOP-62 NSCLC) was over 54 µM and the TGI (RPMI-8226 leukemia) was over 100 µM. The TGI (MALME-3M melanoma) was over 88.6 µM, the TGI (CCRF-CEM leukemia) was over 100 µM and the TGI (UACC-257 melanoma) was over 100 µM. It also gave a TGI (OVCAR-5 ovarian) of over 100 µM, a TGI (HT29 colon) of 24.7 µM and a TGI (BT-549 breast) of 54.8 µM. For the same compound, the TGI (SN12C renal) was over 100 µM, the TGI (K-562 leukemia) was over 100 µM and the TGI (KM20L2 colon) was over 100 µM. The TGI (HOP-18 NSCLC) was 79 µM, the TGI (NCI/ADR-RES ovarian) was 20.3 µM and the TGI (MOLT-4 leukemia) was over 100 µM. It also gave a TGI (MDA-N) of over 100 µM, a TGI (OVCAR-4 ovarian) of 28.1 µM and a TGI (OVCAR-8 ovarian) of 51 µM. For the same compound, the TGI (COLO 205 colon) was over 100 µM, the TGI (HCT-116 colon) was over 55.7 µM and the TGI (SK-MEL-2 melanoma) was over 100 µM. It also gave a TGI (EKVX NSCLC) of over 100 µM, a TGI (MDA-MB-435) of over 100 µM and a TGI (IGROV1 ovarian) of over 100 µM. For the same compound, the TGI (HCT-15 colon) was over 100 µM, the TGI (SF-268 CNS) was over 100 µM and the TGI (SNB-75 CNS) was over 68.8 µM. For the same compound, the TGI (SNB-19 CNS) was over 100 µM, the TGI (A549 NSCLC) was over 100 µM and the TGI (T-47D breast) was over 100 µM. The TGI (RXF 393 renal) was over 100 µM, the TGI (SR leukemia) was over 100 µM and the TGI (NCI-H226 lung) was 92.7 µM. For the same compound, the TGI (LXFL 529 NSCLC) was over 100 µM, the TGI (HS 578T breast) was 22.4 µM and the TGI (DMS 273 small cell lung) was over 100 µM. It also gave a TGI (KM12 colon) of over 100 µM, a TGI (786-0 renal) of over 42.1 µM and a TGI (SF-295 CNS) of over 100 µM. The TGI (U251 CNS) was over 100 µM, the TGI (M14 melanoma) was over 100 µM and the TGI (ACHN renal) was over 100 µM. For the same compound, the TGI (DU-145 prostate) was over 100 µM.
